# Experimental data reported in paper PMC3835334 (ACS medicinal chemistry letters, 2013).
# Test system: JMAR, MDA-MB-231, SKMEL-28, DRO81-1 and MRC-5 cells
# Experiment: not given
# Conditions: not given
Structure (SMILES),Cytotoxic activity in words,Increased cytotoxicity compared to 1
CC1=C(CO)C(=O)O[C@@H]([C@@H](C)[C@H]2CC[C@H]3[C@@H]4C[C@H]5O[C@]56[C@@H](OC(=O)c5ccc(Cl)cc5)C=CC(=O)[C@]6(CO)[C@H]4CC[C@]23C)C1 [Compound 10],active,–
CC1=C(COC(=O)c2ccc(Cl)cc2)C(=O)O[C@@H]([C@@H](C)[C@H]2CC[C@H]3[C@@H]4C[C@H]5O[C@]56[C@@H](O)C=CC(=O)[C@]6(COC(=O)c5ccc(Cl)cc5)[C@H]4CC[C@]23C)C1 [Compound 11],active,–
CC(=O)OCC1=C(C)C[C@H]([C@@H](C)[C@H]2CC[C@H]3[C@@H]4C[C@H]5O[C@]56[C@@H](OC(=O)N(C)C)C=CC(=O)[C@]6(COC(C)=O)[C@H]4CC[C@]23C)OC1=O [Compound 15],–,3–5 times
"CC(=O)OCC1=C(C)C[C@H]([C@@H](C)[C@H]2CC[C@H]3[C@@H]4C[C@H]5O[C@]56CC=CC(=O)[C@]6(COC(C)=O)[C@H]4CC[C@]23C)OC1=O [Compound 17, Jaborosalactone V diacetate]",equipotent to withaferin A,–
CC(=O)OCC1=C(C)C[C@H]([C@@H](C)[C@H]2CC[C@H]3[C@@H]4C[C@@H](O)C5=CC=CC(=O)[C@]5(COC(C)=O)[C@H]4CC[C@]23C)OC1=O [Compound 18],abolished,–
CC1=C(CO)C(=O)O[C@@H]([C@@H](C)[C@H]2CC[C@H]3[C@@H]4C[C@H]5O[C@]56[C@@H](O)C=C(I)C(=O)[C@]6(CO)[C@H]4CC[C@]23C)C1 [Compound 21],very weak activity,–

# Test system: JMAR, MDA-MB-231, SKMEL-28, DRO81-1 and MRC-5 cells
# Experiment: cells
# Conditions: read-out: IC50 values against melanoma and carcinoma cells
row,Structure (SMILES),IC50 [nM]
1,CC(=O)OCC1=C(C)C[C@H]([C@@H](C)[C@H]2CC[C@H]3[C@@H]4C[C@@H](O)[C@@]5(Cl)CC=CC(=O)[C@]5(COC(C)=O)[C@H]4CC[C@]23C)OC1=O [Compound 19],800 to 2160

# Same assay, conditions: read-out: IC50 values over all cell lines tested
row,Structure (SMILES),IC50 [nM]
1,"CCC(=O)OCC1=C(C)C[C@H]([C@@H](C)[C@H]2CC[C@H]3[C@@H]4C[C@H]5O[C@]56[C@@H](OC(=O)CC)C=CC(=O)[C@]6(COC(=O)CC)[C@H]4CC[C@]23C)OC1=O [Compound 9, withalongolide A 4,19,27-propionate]",130 to 1000
2,CC1=C(COC(=O)c2ccc(Cl)cc2)C(=O)O[C@@H]([C@@H](C)[C@H]2CC[C@H]3[C@@H]4C[C@H]5O[C@]56[C@@H](OC(=O)c5ccc(Cl)cc5)C=CC(=O)[C@]6(CO)[C@H]4CC[C@]23C)C1 [Compound 12],> 10000
3,CC1=C(COC(=O)c2ccc(Cl)cc2)C(=O)O[C@@H]([C@@H](C)[C@H]2CC[C@H]3[C@@H]4C[C@H]5O[C@]56[C@@H](OC(=O)c5ccc(Cl)cc5)C=CC(=O)[C@]6(COC(=O)c5ccc(Cl)cc5)[C@H]4CC[C@]23C)C1 [Compound 13],> 10000
4,CC(=O)OC[C@]12C(=O)C=C[C@H](OC(=O)c3ccc(Cl)cc3)[C@]13O[C@@H]3C[C@H]1[C@@H]3CC[C@H]([C@H](C)[C@H]4CC(C)=C(COC(=O)c5ccc(Cl)cc5)C(=O)O4)[C@@]3(C)CC[C@@H]12 [Compound 16],> 10000
5,CC(=O)OCC1=C(C)C[C@H]([C@@H](C)[C@H]2CC[C@H]3[C@@H]4C[C@@H](O)C5=CC=CC(=O)[C@]5(COC(C)=O)[C@H]4CC[C@]23C)OC1=O [Compound 18],> 10000
6,CC(=O)OCC1=C(C)C[C@H]([C@@H](C)[C@H]2CC[C@H]3[C@@H]4C[C@@H](OC(C)=O)C5=CC=CC(=O)[C@]5(COC(C)=O)[C@H]4CC[C@]23C)OC1=O [Compound 20],> 10000
7,CC(=O)OCC1=C(C)C[C@H]([C@@H](C)[C@H]2CC[C@H]3[C@@H]4C[C@H]5O[C@]56[C@@H]5C=CC(=O)[C@]6(COC(=O)CC/C=C/CCC(=O)O5)[C@H]4CC[C@]23C)OC1=O [Compound 24],205 to 965
